In ChEMBL document CHEMBL6120945, “Peptidomimetic Analogues Act as Effective Inhibitors against SARS-CoV-2 by Blocking the Function of Cathepsin L” (J Med Chem, 2024):
pEC50, pIC50, pKi: −log10 of the molar value. The source made the active and inactive calls. The rule behind the calls is not given here. Where a SMILES comes first, the peptide text is derived from it. The star is where a group is joined. Butyryl = CCCC(=O)*

How the values were obtained:
[1] = target: Replicase polyprotein 1ab (Severe acute respiratory syndrome coronavirus 2, UniProt P0DTD1); test: Inhibition of recombinant SARS-CoV-2 3CLpro using MCA-AVLQSGFR-Lys(Dnp)-Lys-NH2 as substrate incubated for 1.5 hrs by fluorescence based analysis
[2] = Cytotoxicity against african green monkey Vero E6 cells assessed as cell viability incubated for 48 hrs by CCK-8 assay; assay type: toxicity, cell-based, Vero C1008; details: chlorocebus sabaeus
[3] = target: Replicase polyprotein 1ab (Severe acute respiratory syndrome coronavirus 2) (UniProt P0DTD1); test: Inhibition of recombinant SARS-CoV-2 3CLpro using MCA-AVLQSGFR-Lys(Dnp)-Lys-NH2 as substrate at 10 uM incubated for 1.5 hrs by fluorescence based analysis
[4] = target: Replicase polyprotein 1ab (Severe acute respiratory syndrome coronavirus 2) (UniProt P0DTD1); test: Inhibition of SARS-CoV2 PLpro using Z-RLRGG-AMC as substrate at 10 uM preincubated for 30 mins followed by substrate addition and measured after 1.5 hrs by fluorescence based analysis; details: time 2.0 hrs
Homo sapiens [5] = organism: Homo sapiens; test: Inhibition of human recombinant Cathepsin L-like protease using Z-FR-AMC as substrate at 10 uM preincubated for 30 mins followed by substrate addition and measured after 1.5 hrs by fluorescence based analysis; details: time 2.0 hrs
[6] = target: Transmembrane protease serine 2 (Homo sapiens) (UniProt O15393); test: Inhibition of human recombinant TMPRSS2 using Boc-QAR-AMC as substrate at 10 uM preincubated for 30 mins followed by substrate addition and measured after 1.5 hrs by fluorescence based analysis; details: time 2.0 hrs
[7] = Inhibition of human recombinant Cathepsin L-like protease using Z-FR-AMC as substrate preincubated for 30 mins followed by substrate addition and measured after 1.5 hrs by fluorescence based analysis
[8] = system: Severe acute respiratory syndrome coronavirus 2; test: Inhibition of recombinant SARS-Cov-2 Cathepsin L-like protease by LC-MS/MS analysis
Vero E6 [9] = test: Inhibition of Procathepsin L in african green monkey Vero E6 cells by LC-MS/MS analysis; assay type: cell-based; details: Chlorocebus aethiops
SARS-CoV-2 [10] = assay type: functional, organism-based; details: Severe acute respiratory syndrome coronavirus 2; Vero E6; time 12.0 hrs
Trypsin (Homo sapiens) = Trypsin (Homo sapiens) (UniProt P07477+P07478+P35030); test: Inhibition of human trypsin at 10 uM relative to control; assay type: protein assay
[11] = target: Chymotrypsin (Homo sapiens) (UniProt Q99895+P17538+P40313+Q6GPI1); test: Inhibition of human Chymotrypsin at 10 uM relative to control; assay type: protein assay
Cathepsin B [12] = target: T1, Cathepsin B (Homo sapiens, UniProt P07858); test: Inhibition of Cathepsin B (unknown origin) at 10 uM relative to control
[13] = target: T2, Cathepsin L2 (Homo sapiens) (UniProt O60911); test: Inhibition of Cathepsin V (unknown origin) at 10 uM relative to control
T2 sequence (whole entry): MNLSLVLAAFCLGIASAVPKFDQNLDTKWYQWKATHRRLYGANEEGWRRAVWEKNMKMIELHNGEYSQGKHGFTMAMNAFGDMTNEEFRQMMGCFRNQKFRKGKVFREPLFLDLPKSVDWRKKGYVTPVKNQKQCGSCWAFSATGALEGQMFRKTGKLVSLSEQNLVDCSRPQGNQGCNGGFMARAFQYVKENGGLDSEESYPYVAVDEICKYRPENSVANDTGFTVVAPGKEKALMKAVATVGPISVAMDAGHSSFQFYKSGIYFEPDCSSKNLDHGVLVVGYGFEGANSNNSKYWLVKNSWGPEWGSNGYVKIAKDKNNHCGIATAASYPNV

[14] = Binding affinity to human recombinant Cathepsin L-like protease using Z-FR-AMC as substrate assessed as inhibition constant preincubated for 30 mins followed by substrate addition and measured after 1 hr by Morrison equation based analysis
Cathepsin B [15] = target: T1, Cathepsin B; test: Binding affinity to Cathepsin B (unknown origin) assessed as inhibition constant by Morrison equation based analysis
Cathepsin L2 = target: T3, Cathepsin L2 (Homo sapiens, UniProt O60911); test: Binding affinity to Cathepsin V (unknown origin) assessed as inhibition constant by Morrison equation based analysis
T3 sequence (O60911 whole entry): T2 sequence (whole entry)

[16] = target: Transmembrane protease serine 2 (Homo sapiens) (UniProt O15393); test: Inhibition of human recombinant TMPRSS2 using Boc-QAR-AMC as substrate at 10 uM preincubated for 30 mins followed by substrate addition and measured after 1.5 hrs by fluorescence based analysis relative to control; details: time 2.0 hrs
SARS-CoV-2 [17] = test: microbe, parasite or virus in culture; details: Severe acute respiratory syndrome coronavirus 2, WIV04, Vero C1008
Description: Antiviral activity against SARS-CoV-2 WIV04 infected in African green monkey Vero E6 pre-infected with cells for 1 hr followed by compound treatment and measured after 24 hrs by qRT-PCR analysis

[18] = Inhibition of human recombinant Cathepsin L-like protease using Z-FR-AMC as substrate at 10 uM preincubated for 30 mins followed by substrate addition and measured after 1.5 hrs by […]
Homo sapiens [19] = organism: Homo sapiens; test: Inhibition of human recombinant Cathepsin L-like protease using Z-FR-AMC as substrate at 1 uM preincubated for 30 mins followed by substrate addition and measured after 1.5 hrs by fluorescence based analysis; details: time 2.0 hrs
[20] = Inhibition of recombinant Cathepsin L-like protease in african green monkey Vero E6 cells incubated for 2 hrs by pull down assay; assay type: cell-based, Chlorocebus aethiops
Vero E6 [21] = test: Binding affinity to Cathepsin L-like protease in african green monkey Vero E6 cells incubated for 2 hrs by mass spectrometric analysis; assay type: cell-based; details: Chlorocebus aethiops
Vero E6 [22] = test: Binding affinity to Cathepsin L-like protease in african green monkey Vero E6 cells incubated for 2 hrs by Western blot analysis; assay type: cell-based; details: Chlorocebus aethiops

Transmembrane protease serine 2 (Homo sapiens), sequence (O15393 1-255 limits assumed): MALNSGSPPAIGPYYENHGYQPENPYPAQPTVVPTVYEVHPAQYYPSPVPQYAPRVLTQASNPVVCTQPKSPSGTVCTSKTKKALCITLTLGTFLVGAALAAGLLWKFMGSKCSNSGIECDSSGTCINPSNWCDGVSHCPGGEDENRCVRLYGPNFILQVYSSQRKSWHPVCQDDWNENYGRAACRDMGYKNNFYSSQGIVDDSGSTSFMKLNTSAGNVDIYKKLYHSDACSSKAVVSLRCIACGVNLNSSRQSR
Transmembrane protease serine 2 (Homo sapiens), sequence (O15393 256-492 limits assumed): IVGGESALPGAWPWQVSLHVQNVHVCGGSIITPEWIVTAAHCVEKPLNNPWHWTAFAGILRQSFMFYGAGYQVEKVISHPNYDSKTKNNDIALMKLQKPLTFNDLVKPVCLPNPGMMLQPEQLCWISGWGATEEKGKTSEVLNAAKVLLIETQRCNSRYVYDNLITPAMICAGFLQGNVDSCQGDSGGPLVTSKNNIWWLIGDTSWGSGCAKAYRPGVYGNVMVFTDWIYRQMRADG

CC(C)C[C@H](NC(=O)/C=C/c1ccccc1)C(=O)N[C@H](C=O)Cc1ccccc1
pIC50 [1]: < 5.00 | CC50 at 48 h [2]: > 100000 nM | inhibition [3]: inactive | inhibition [4]: inactive | inhibition (Homo sapiens [5]): Active | inhibition [6]: inactive | pIC50 [7]: 7.65 | inhibition [8]: Active | inhibition (Vero E6 [9]): Active | Activity (SARS-CoV-2 [10]): Active | inhibition (Trypsin (Homo sapiens)): inactive | inhibition [11]: inactive | inhibition (Cathepsin B [12]): inactive | inhibition [13]: inactive | pKi [14]: 8.88 | pKi (Cathepsin B [15]): 7.40 | pKi (Cathepsin L2): 8.65 | inhibition [16]: 100% | pEC50 (SARS-CoV-2 [17]): 6.51

C#CCCCCOc1ccc(/C=C/C(=O)N[C@@H](CC(C)C)C(=O)N[C@@H](Cc2ccccc2)C(=O)OC)cc1
pIC50 [1]: < 5.00 | CC50 at 48 h [2]: > 100000 nM | pEC50 (SARS-CoV-2 [17]): < 4.00

O=C(N[C@@H](Cc1ccc(F)cc1)C(=O)N[C@@H](Cc1ccccc1)C(=O)CCl)c1cccc2ccccc12
pIC50 [18]: 9.57 | Activity (SARS-CoV-2 [10]): Active | inhibition (Trypsin (Homo sapiens)): inactive | inhibition [11]: inactive | inhibition (Cathepsin B [12]): inactive | inhibition [13]: inactive | pEC50 (SARS-CoV-2 [17]): 6.59

O=C(N[C@@H](Cc1cccc(F)c1)C(=O)N[C@@H](Cc1ccccc1)C(=O)CCl)c1cccc2ccccc12
pIC50 [18]: 8.87

CC(C)C[C@H](NC(=O)/C=C/c1ccccc1)C(=O)N[C@H](C=O)C[C@@H]1CCCNC1=O
CC50 at 48 h [2]: > 100000 nM | pEC50 (SARS-CoV-2 [17]): 5.82

CC(C)C[C@@H](NC(=O)/C=C/c1ccccc1)C(=O)N[C@H](C=O)Cc1ccccc1
pIC50 [1]: < 5.00 | pIC50 [7]: < 6.00 | inhibition (Homo sapiens [19]): inactive

O=C(N[C@@H](Cc1cccc(F)c1)C(=O)N[C@@H](Cc1ccccc1)C(=O)CCl)c1ccc2[nH]ccc2c1
pIC50 [18]: 9.14 | pEC50 (SARS-CoV-2 [17]): 5.76

COC(=O)[C@H](Cc1ccccc1)NC(=O)[C@H](CC(C)C)NC(=O)/C=C/c1ccccc1
pIC50 [1]: < 5.00 | CC50 at 48 h [2]: > 100000 nM | pEC50 (SARS-CoV-2 [17]): < 4.00

O=C(N[C@@H](Cc1ccccc1)C(=O)N[C@@H](Cc1ccccc1)C(=O)CCl)c1ccc2[nH]ccc2c1
pIC50 [18]: 9.10

O=C(N[C@@H](Cc1ccccc1)C(=O)N[C@@H](Cc1ccccc1)C(=O)CCl)c1cccc2ccccc12
pIC50 [18]: 9.39 | pEC50 (SARS-CoV-2 [17]): 6.40

CC(C)C[C@H](NC(=O)/C=C/c1ccccc1)C(=O)N[C@H](C=O)C[C@@H]1CCNC1=O
CC50 at 48 h [2]: > 100000 nM

O=C(N[C@@H](Cc1ccc(F)cc1)C(=O)N[C@@H](Cc1ccccc1)C(=O)CCl)c1ccc2[nH]ccc2c1
pIC50 [18]: 9.25 | pEC50 (SARS-CoV-2 [17]): 6.39

C#CCCCCOc1ccc(/C=C/C(=O)N[C@@H](CC(C)C)C(=O)N[C@H](C=O)Cc2ccccc2)cc1
pEC50 [20]: 5.21 | pIC50 [7]: 7.39 | Activity (Vero E6 [21]): Active | Activity (Vero E6 [22]): Active

CCCC(=O)N[C@@H](CC(C)C)C(=O)N[C@H](C=O)Cc1ccccc1 (Butyryl-Leu-Phe-aldehyde)
pIC50 [1]: < 5.00 | pIC50 [7]: 7.14
